# Experimental data as given in patent US20240116971A1, “NMN AND DERIVATIVES FOR ITS USE IN THE TREATMENT OF DEPRESSION AND/OR ANXIETY IN PATIENTS HAVING A FORM OF PARKINSONISM” (Nuvamid SA, priority 2021, published 2024).
# System: patient having MSA
# Assay: UMSARS questionary before and after 6 months of NMN (beta) in one patient
# Type: in vivo, human
# Description: A person presenting with parkinsonism was given NMN (beta) for 6 months. […] They indicated difficulties to get out of bed in the morning and feeling low and depressed during the day. Administration of 125 mg of NMN (beta) as an oral tablet occurred once per day in the morning. The patient has taken the […] questionary before the beginning of the study (D0) and after 6 months of treatment.
# [1] = 6 months vs D0, daily administration
smiles,measurement,setting,value
"NC(=O)c1ccc[n+]([C@@H]2O[C@H](COP(=O)(O)O)[C@@H](O)[C@H]2O)c1 [beta-NMN, nicotinamide mononucleotide]",items of the UMSARS questionary improved,"6 months vs D0, 125 mg/day oral","improved items 1, 13, 14, 16-18, 22, 26, 28, 29, 34-36"
same,clinical signs related to motricity,[1],"did not improve most of the clinical signs related to motricity apart from items 1, 13, 14 and 16"
same,symptoms related to the depression,[1],improved the symptoms related to the depression
